In patent US20140212495A1, “NANOPARTICULATE COMPOSITIONS OF TUBULIN INHIBITOR COMPOUNDS” (Ziopharm Oncology, Inc., priority 2004, published 2014):
Where two headings read alike, the source gives them in different places.

Columns and labels:
[1] = 4-week subchronic toxicity study in dogs, D-24851 plasma pharmacokinetics; type: in vivo; conditions: for AUC / Cmax / Tmax / half-life / AUC(0-t): dog, plasma, iv; for AUC(0-t): read-out: AUC0-tlast,md
Description: Blood samples from all animals were taken at the following times: 1 h, 2 h, 4 h, 8 h, 16 h, 24 h, 36 h and 48 hours after application. The concentration levels of D-24851 were measured using HPLC.

[2] = system: cell cycle progression at metaphase; conditions: cited from earlier work
tubulin = conditions: cited from earlier work
[3] = system: a variety of malignancies (e.g., prostate, brain, breast, pancreas, and colon); conditions: cited from earlier work
[4] = cited from earlier work

## O=C(Nc1ccncc1)C(=O)c1cn(Cc2ccc(Cl)cc2)c2ccccc12 [Composition D-24851, N-(Pyridin-4-yl)-[1-(4-chlorobenzyl)-indol-3-yl]glyoxylic acid amide]
[1]; Composition 4 i.v. 2.61, 5.62 and 12.1 mg/kg
  dose dependence of plasma concentrations: depend from the dose
[1]; Composition 4 i.v., 4 weeks
  plasma profiles day 1 versus day 27: of similar magnitude at day 1 and day 27 dosings
[1]; Day 1, Composition 4 i.v. 5.62 mg/kg, Males, Meanar n=3
  CL/f: 38.1 mL/min/kg
[1]; Day 1, Composition 4 i.v. 12.1 mg/kg, Females, Meanar n=3
  CL/f: 31.1 mL/min/kg
[1]; Day 1, Composition 4 i.v. 12.1 mg/kg, Males, Meanar n=3
  CL/f: 29.5 mL/min/kg
[1]; Day 27, Composition 4 i.v. 5.62 mg/kg, Males, Meanar n=3
  CL/f: 38.1 mL/min/kg
[1]; Day 27, Composition 4 i.v. 12.1 mg/kg, Females, Meanar n=3
  CL/f: 31.1 mL/min/kg
[1]; Day 27, Composition 4 i.v. 12.1 mg/kg, Males, Meanar n=3
  CL/f: 29.5 mL/min/kg
[1]; female, 2.61 mg/kg, Day 1, Composition 4 i.v. 2.61 mg/kg, Females, Meanar n=3, read-out: AUCτ, sd
  AUC: 3400 ng·h/mL
[1]; female, 2.61 mg/kg, Day 1, Composition 4 i.v. 2.61 mg/kg, Females, Meanar n=3, read-out: Cmax, sd
  Cmax: 210 ng/mL
[1]; female, 2.61 mg/kg, Day 1, Composition 4 i.v. 2.61 mg/kg, Females, Meanar n=3, read-out: tmax, sd
  Tmax: 1.67 h
[1]; female, 2.61 mg/kg, Day 1, Composition 4 i.v. 2.61 mg/kg, Females, only for orientating, unsufficient curve fitting
  half-life: 41 h
[1]; female, 2.61 mg/kg, Day 27, Composition 4 i.v. 2.61 mg/kg, Females, Meanar n=3, read-out: AUCτ, md
  AUC: 1410 ng·h/mL
[1]; female, 2.61 mg/kg, Day 27, Composition 4 i.v. 2.61 mg/kg, Females, Meanar n=3, read-out: Cmax, md
  Cmax: 148 ng/mL
[1]; female, 2.61 mg/kg, Day 27, Composition 4 i.v. 2.61 mg/kg, Females, Meanar n=3, read-out: tmax, md
  Tmax: 2.33 h
[1]; female, 2.61 mg/kg, Day 27, Composition 4 i.v. 2.61 mg/kg, Females, only for orientating, insufficient curve fitting
  half-life: 28.3 h
[1]; female, 2.61 mg/kg
  AUC(0-t): 1100 ng·h/mL
[1]; female, 5.62 mg/kg, Day 1, Composition 4 i.v. 5.62 mg/kg, Females, Meanar n=3, read-out: AUCτ, sd
  AUC: 3540 ng·h/mL
[1]; female, 5.62 mg/kg, Day 1, Composition 4 i.v. 5.62 mg/kg, Females, Meanar n=3, read-out: Cmax, sd
  Cmax: 279 ng/mL
[1]; female, 5.62 mg/kg, Day 1, Composition 4 i.v. 5.62 mg/kg, Females, only for orientating, unsufficient curve fitting
  half-life: 20 h
[1]; female, 5.62 mg/kg, Day 27, Composition 4 i.v. 5.62 mg/kg, Females, Meanar n=3
  half-life: 14.8 h
[1]; female, 5.62 mg/kg, Day 27, Composition 4 i.v. 5.62 mg/kg, Females, Meanar n=3, read-out: AUCτ, md
  AUC: 2960 ng·h/mL
[1]; female, 5.62 mg/kg, Day 27, Composition 4 i.v. 5.62 mg/kg, Females, Meanar n=3, read-out: Cmax, md
  Cmax: 315 ng/mL
[1]; female, 5.62 mg/kg, Day 27, Composition 4 i.v. 5.62 mg/kg, Females, Meanar n=3, read-out: tmax, md
  Tmax: 2.33 h
[1]; female, 5.62 mg/kg
  AUC(0-t): 2740 ng·h/mL
[1]; female, 5.62 mg/kg, read-out: tmax, sd
  Tmax: 2 h
[1]; female, 12.1 mg/kg, Day 1, Composition 4 i.v. 12.1 mg/kg, Females, Meanar n=3
  half-life: 11.6 h
[1]; female, 12.1 mg/kg, Day 1, Composition 4 i.v. 12.1 mg/kg, Females, Meanar n=3, read-out: AUCsd
  AUC: 8250 ng·h/mL
[1]; female, 12.1 mg/kg, Day 1, Composition 4 i.v. 12.1 mg/kg, Females, Meanar n=3, read-out: AUCτ, sd
  AUC: 7670 ng·h/mL
[1]; female, 12.1 mg/kg, Day 1, Composition 4 i.v. 12.1 mg/kg, Females, Meanar n=3, read-out: Cmax, sd
  Cmax: 860 ng/mL
[1]; female, 12.1 mg/kg, Day 1, Composition 4 i.v. 12.1 mg/kg, Females, Meanar n=3, read-out: tmax, sd
  Tmax: 2.33 h
[1]; female, 12.1 mg/kg, Day 27, Composition 4 i.v. 12.1 mg/kg, Females, Meanar n=3
  half-life: 24.2 h
[1]; female, 12.1 mg/kg, Day 27, Composition 4 i.v. 12.1 mg/kg, Females, Meanar n=3, read-out: AUCτ, md
  AUC: 4850 ng·h/mL
[1]; female, 12.1 mg/kg, Day 27, Composition 4 i.v. 12.1 mg/kg, Females, Meanar n=3, read-out: Cmax, md
  Cmax: 329 ng/mL
[1]; female, 12.1 mg/kg, Day 27, Composition 4 i.v. 12.1 mg/kg, Females, Meanar n=3, read-out: tmax, md
  Tmax: 2.67 h
[1]; female, 12.1 mg/kg
  AUC(0-t): 4850 ng·h/mL
[1]; male, 2.61 mg/kg, Day 1, Composition 4 i.v. 2.61 mg/kg, Males, Meanar n=3, read-out: Cmax, sd
  Cmax: 147 ng/mL
[1]; male, 2.61 mg/kg, Day 1, Composition 4 i.v. 2.61 mg/kg, Males, Meanar n=3, read-out: tmax, sd
  Tmax: 1.67 h
[1]; male, 2.61 mg/kg, Day 27, Composition 4 i.v. 2.61 mg/kg, Males, Meanar n=3
  half-life: 40.7 h
[1]; male, 2.61 mg/kg, Day 27, Composition 4 i.v. 2.61 mg/kg, Males, Meanar n=3, read-out: AUCτ, md
  AUC: 1740 ng·h/mL
[1]; male, 2.61 mg/kg, Day 27, Composition 4 i.v. 2.61 mg/kg, Males, Meanar n=3, read-out: Cmax, md
  Cmax: 224 ng/mL
[1]; male, 2.61 mg/kg, Day 27, Composition 4 i.v. 2.61 mg/kg, Males, Meanar n=3, read-out: tmax, md
  Tmax: 1.33 h
[1]; male, 2.61 mg/kg
  AUC(0-t): 1450 ng·h/mL
[1]; male, 5.62 mg/kg, Day 1, Composition 4 i.v. 5.62 mg/kg, Males, Meanar n=3
  half-life: 6.63 h
[1]; male, 5.62 mg/kg, Day 1, Composition 4 i.v. 5.62 mg/kg, Males, Meanar n=3, read-out: AUCsd
  AUC: 2470 ng·h/mL
[1]; male, 5.62 mg/kg, Day 1, Composition 4 i.v. 5.62 mg/kg, Males, Meanar n=3, read-out: AUCτ, sd
  AUC: 2590 ng·h/mL
[1]; male, 5.62 mg/kg, Day 1, Composition 4 i.v. 5.62 mg/kg, Males, Meanar n=3, read-out: Cmax, sd
  Cmax: 241 ng/mL
[1]; male, 5.62 mg/kg, Day 27, Composition 4 i.v. 5.62 mg/kg, Males, Meanar n=3, read-out: Cmax, md
  Cmax: 186 ng/mL
[1]; male, 5.62 mg/kg, Day 27, Composition 4 i.v. 5.62 mg/kg, Males, Meanar n=3, read-out: tmax, md
  Tmax: 2.33 h
[1]; male, 5.62 mg/kg, Day 27, Composition 4 i.v. 5.62 mg/kg, Males, marked ** (footnote not given)
  half-life: 5.1 h
[1]; male, 5.62 mg/kg
  AUC(0-t): 1320 ng·h/mL
[1]; male, 5.62 mg/kg, read-out: AUCτ, md
  AUC: 1850 ng·h/mL
[1]; male, 5.62 mg/kg, read-out: tmax, sd
  Tmax: 2 h
[1]; male, 12.1 mg/kg, Day 1, Composition 4 i.v. 12.1 mg/kg, Males, Meanar n=3
  half-life: 8.74 h
[1]; male, 12.1 mg/kg, Day 1, Composition 4 i.v. 12.1 mg/kg, Males, Meanar n=3, read-out: AUCsd
  AUC: 6980 ng·h/mL
[1]; male, 12.1 mg/kg, Day 1, Composition 4 i.v. 12.1 mg/kg, Males, Meanar n=3, read-out: AUCτ, sd
  AUC: 6870 ng·h/mL
[1]; male, 12.1 mg/kg, Day 1, Composition 4 i.v. 12.1 mg/kg, Males, Meanar n=3, read-out: Cmax, sd
  Cmax: 592 ng/mL
[1]; male, 12.1 mg/kg, Day 1, Composition 4 i.v. 12.1 mg/kg, Males, Meanar n=3, read-out: tmax, sd
  Tmax: 2.67 h
[1]; male, 12.1 mg/kg, Day 27, Composition 4 i.v. 12.1 mg/kg, Males, Meanar n=3
  half-life: 11.9 h
[1]; male, 12.1 mg/kg, Day 27, Composition 4 i.v. 12.1 mg/kg, Males, Meanar n=3, read-out: AUCτ, md
  AUC: 5620 ng·h/mL
[1]; male, 12.1 mg/kg, Day 27, Composition 4 i.v. 12.1 mg/kg, Males, Meanar n=3, read-out: Cmax, md
  Cmax: 435 ng/mL
[1]; male, 12.1 mg/kg, Day 27, Composition 4 i.v. 12.1 mg/kg, Males, Meanar n=3, read-out: tmax, md
  Tmax: 2.67 h
[1]; male, 12.1 mg/kg
  AUC(0-t): 5560 ng·h/mL
[2]
  effect on cell cycle progression: selectively blocks cell cycle progression at metaphase
tubulin
  overlap of binding site with tubulin-binding sites of vincristine or colchicine: does not appear to overlap
tubulin; in tumor cells, as well as in a cell-free system
  effect on microtubules: destabilizes microtubules
[3]
  antitumor activity in vitro: significant antitumor activity
[4]; animal experiments
  neurological symptoms: No neurological symptoms
[4]; animals
  in-vivo antineoplastic efficacy: high in-vivo antineoplastic efficacy
[4]; preclinical experiments in rodents
  tolerability: very well tolerated at highly effective doses
